Measurements: patent publication US6537593B2, “Plant phenol as new hepatoprotective agents” (Council of Scientific and Industrial Research, priority 2000, dated 2003)

Legend:
[1] = test system: p-388 lymphocyte leukemia; settings: cited from earlier work
[2] = test system: Male wistar rats; test: Carbon tetrachloride induced hepatotoxicity in rats (serum AST and ALT); assay type: in vivo, rat; settings: for Protection against CCl4 induced toxicity: orally, rats
Method: Carbon tetrachloride is a classical method to induce free radical mediated hepatotoxicity. In order to evaluate the free radical mediated hepatotoxicity and heptoprotective properties in the compound (−)-wikstromol, this method was employed. Male wistar rats were selected for study. The compound was dissolved in a small amount of DMSO and reconstituted in gum acacia/water. The compound was given one hour before CCl4 administration to the over-night fasted rats in a dose of 250 mg/kg-body weight, orally. After one hour, a mixture of CCl4 and liquid paraffin (1:1, v/v) in the dose of 2.5 ml/kg was given orally. Fasting was continued. However, water was provided ad-libitum. After 5 hrs of CCl4 administration, blood was taken out from the retroorbital plexus. Serum aspartase transaminase and serum alanine transaminase was measured as a marker of hepatotoxicity.
Carbon tetrachloride induced toxicity was repeated as referred in the example 2 by changing the dosage level to 300 mg/kg-body weight, orally. Fasting was continued. However, water was provided ad-libitum. After 5hrs of CCl4 administration, blood was taken out from the retroorbital plexus. Serum aspartase transaminase and serum alanine transaminase was measured as a marker of hepatotoxicity.

[3] = test system: HIV; settings: cited from earlier work
[4] = serum, 5 hours after CCl4 administration, compound 250 mg/kg orally one hour before CCl4 2.5 ml/kg, mean ± SD

## COc1cc(C[C@@H]2COC(=O)[C@@]2(O)Cc2ccc(O)c(OC)c2)ccc1O [(−)-wikstromol, 4,4^1,8-trihydroxy-3,3^1-dimethoxyliganan-9,9^1-olide]
[1]
  Activity against p-388 lymphocyte leukemia: active
[2]; 250 mg/kg-body weight
  Protection against CCl4 induced toxicity: significantly prevented CCl4 induced toxicity
[2]; 300 mg/kg-body weight
  Protection against CCl4 induced toxicity: shows significant activity and prevented CCl4 induced toxicity
[2]; dosage of 250 to 300 mg/kg of body weight
  Hepatoprotective effectiveness: highly effective
[2]; serum alanine transaminase before oral administration of compound and CCl4, mean ± SD, 250 mg/kg group
  ALT (U/L) Before: 42 ± 7 U/L
[2]; serum aspartate transaminase before oral administration of compound and CCl4, mean ± SD, 250 mg/kg group
  AST (U/L) Before: 281 ± 91 U/L
[2]; [4]
  ALT (U/L) After: 188 ± 66 U/L
  AST (U/L) After: 557 ± 126 U/L
[3]
  Anti-HIV activity: anti-HIV activity
